Source: patent publication US20120005765A1, “ANIMAL MODEL FOR PARKINSON'S DISEASE” (Saint Louis University, priority 2010, published 2012)

Tested on: dopaminergic neurons in the substantia nigra
Assay: Tyrosine hydroxylase immunohistochemistry and densitometry after DOPAL injection into substantia nigra
Type: in vivo, rat
Description: Immunohistochemistry. Eighteen hours (two rats) or 5 days following the surgery the rats were anesthetized and perfused through the left ventricle of the heart with 0.1 M phosphate buffer containing 4% paraformaldehyde. The brains were removed, post-fixed for at least 4 h, sunk in 25% sucrose, and sectioned frozen at 50 pm with a sliding microtome. Adjacent series of sections were subjected to a conventional immunoperoxidase protocol using antibodies against tyrosine hydroxylase (TH; Sigma, monoclonal, made in […], used at a dilution of 1:6000), neuronal nuclear antigen (NeuN, Chemicon, Temecula, Calif., USA, made in rabbit, used at 1:20,000) or glial fibrillary acidic protein (GFAP, made in rabbit, used at 1:5000). Briefly, the sections were immersed overnight in 0.1 M Sorenson's phosphate buffer (SPB, pH 7.4) containing 0.2% Triton X-100 (SPB/Triton) and primary antibody with agitation. The following morning they were thrice rinsed in SPB/Triton and immersed for 1 h in SPB/Triton containing biotinylated secondary antibodies against the host species of the primary antibodies, used at a dilution of 1:200. The sections were again thrice rinsed in SPB/Triton and then immersed in SPB/Triton containing ABC reagents (Vector, Burlingame, Calif., USA) used at a dilution of 1:200. After further rinsing in SPB the sections were reacted with 3,3-diaminobenzidine (DAB) and hydrogen peroxide to produce an insoluble brown reaction product that was further intensified with osmium and thiocarbohydrazide as has been described. All immersions and rinses were done at room temperature. In addition, a series of sections from many of the brains was mounted and processed for Nissl staining using a standard cresyl violet staining procedure. […]
Determination of DOPAL-induced Parkinson's disease-like behavior Injections of DOPAL or ALDH1A1 antisense oligo into rat SN. […] After 5-7 weeks, rats were injected with apomorphine (0.4 mg/kg, subcutaneously) and rotational asymmetry determined in each group just prior to sacrifice. […]

For `O=CCc1ccc(O)c(O)c1` [DOPAL, 3,4-dihydroxyphenylacetaldehyde], the “immunoreactivity of TH in the SN ipsilateral to injection” value (vs contralateral non-injected side) was “decrease”, the “reduction in TH immunoreactivity in the striatum ipsilateral to injection” value (vs contralateral non-injected side, background subtracted) was 28% and the “loss of TH immunoreactivity by spot density, ventrolateral striatum ipsilateral to injection” value (vs contralateral side) was 80%.
